Experimental data reported in patent US20060210479A1 (Dow Global Technologies Inc., priority 2004, published 2006).
“Also recorded” adds a separate entry of the source. Marks after values point to notes of the source that are not given here.

What was measured:
[1] = system: LNCaP cells; test: Permeability: detection of chelate compounds in the cytoplasm; type: cell-based, human; design: key to Permeability LNCaP: Absence = 0; presence = +; details: for Permeability LNCaP: 50 μM, 90 minutes at 37 °C, detection in the cytoplasm; for detection within the cytoplasm: carcinoma cell line LNCaP
Protocol: (§1) Cell cultures. LNCaP cell line is a human prostate carcinoma. Cells were grown in RPMI 1640 Medium supplemented 10% FBS, 2 mM L-glutamine, glucose (2 g/L) augmented with gentamicin (50 μg/mL), penicillin/streptomycin (100 IU/mL/100 μg/mL) and amphotericin B (2.5 μg/mL). Caco-2 cell line is a human colorectal carcinoma. These cells were grown in Eagle's Minimum Essential Medium supplemented with 20% FBS, Earle's BSS, 2 mM L-glutamine, 1.0 mM sodium pyruvate, 0.1 mM nonessential amino acids augmented with gentamicin (50 μg/mL), penicillin/streptomycin (100 IU/mL/100 μg/mL), and amphotericin B (2.5 μg/mL). The human kidney transformed cells HEK293 were grown in Eagle's Minimum Essential Medium (EMEM) supplemented with 10% (v/v) heat-inactivated fetal bovine serum, sodium pyruvate, nonessential amino acids and antibiotics in a humidified 5% CO2 atmosphere at 37° C. Medium and supplements were purchased from Gibco BRL (Grand Island, N.Y.) and all cell lines were obtained from ATCC.
(§2) Detection of chelant compounds for the determination of permeability. Cells were grown to confluence in T-150 flasks (about 2×10^7 cells). Before treating with chelate compounds, cells were rinsed twice with warm 10 mM HEPES (Gibco BRL, Grand Island N.Y.), removed from the flask, and transferred to a 50-mL conical tube and centrifuged (400×g) for 5 minutes. The resulting cells were treated with individual chelate compounds with 50 μM of chelate compounds in 10 mM HEPES, pH 7.4, 5 mM KCl, 150 mM NaCl, 0.7 mM NaH2PO4 for 90 minutes at 37° C. After treatment, cells were pelleted by centrifugation, the cytoplasm was extracted by Mem-PER Eukaryotic Membrane Protein Extraction Reagent Kit as described by manufacturers (Pierce biotechnology, Rockford, Ill.) and the resulting solution was analyzed by a combination of HPLC and mass spectrometry (Table 8).

[2] = system: Caco-2 cells; test: Adsorption of chelate compounds to cells (HPLC and mass spectrometry); type: cell-based, human; details: for Adsorption Caco-2: 50 µM chelate compound, 0, 30 and 90 minutes at 37 °C, % adsorbed relative to time zero
Description: (§3) As a prerequisite for the understanding of the functional attributes of Tb-PCTMB and Eu-QCTME for diagnostics and therapeutic purposes, and for other uses, it is useful to synthesize a series of chelate compounds that contain structural elements of both PCTMB and QCTME and test these compounds for adsorption and permeability to different cell lines. The first approach was to test for adsorption to a normal cell line (HEK293) and to two epithelial cancer cell lines (LNCaP and Caco-2). The second approach, described in this example, involves testing only the compounds that adsorbed in the cancer cell lines and not in the normal cell lines for permeability. Adsorption and permeability of the compounds to epithelial cancer cell lines and a normal cell line was measured through the detection of the compound by HPLC and mass spectrometry.
as §1
(§4) Detection of chelate compounds for the determination of adsorption. Cells were grown to confluence in T-150 flasks (about 2×10^7 cells). Before treating with chelate compounds, cells were rinsed twice with warm 10 mM HEPES (Gibco BRL, Grand Island N.Y.), removed from the flask, and transferred to a 50-mL conical tube and centrifuged (400×g) for 5 minutes. The resulting cells were treated with individual chelate compounds with 50 µM of chelate compounds in 10 mM HEPES, pH 7.4, 5 mM KCl, 150 mM NaCl, 0.7 mM NaH2PO4 for 0, 30, and 90 minutes at 37 ° C. After treatment, cells were pelleted by centrifugation and the resulting solution was analyzed by a combination of HPLC and mass spectrometry.

[3] = system: HEK293 cells; test: as above; type: cell-based, human; details: for Adsorption HEK293: 50 µM chelate compound, 0, 30 and 90 minutes at 37 °C, % adsorbed relative to time zero
Description: as §3, §1, §4

[4] = system: LNCaP cells; test: as above; type: cell-based, human; details: for Adsorption LNCaP: 50 µM chelate compound, 0, 30 and 90 minutes at 37 °C, % adsorbed relative to time zero
Description: as §3, §1, §4

[5] = system: HEK293 cells; test: Permeability: detection of chelate compounds in the cytoplasm; type: cell-based, human; design: key: Absence = 0; presence = +; details: 50 μM, 90 minutes at 37 °C
Protocol: as §1, §2

[6] = Solubility of chelate compounds; details: <5% methanol, ethanol, or DMSO
[7] = target: T1, BiP (Homo sapiens, UniProt P11021); test: Elution and identification of target-chelate compound associations; type: binding
T1 construct: Caco-2 and LNCaP cell lines were lysed by sonication or by lysis in hypotonic buffer; endogenous in cells; host or cells: Caco-2 and LNCaP
Protocol: (§5) Identification of novel target-chelate compound associations—Caco-2 and LNCaP cell lines were lysed by sonication or by lysis in hypotonic buffer. Soluble proteins were enriched and captured on an affinity support column. […] Proteins were eluted by adding different chelate compounds that compete for the bound ligand or change the steric structure of a given protein(s). Eluted samples were analyzed by high resolution SDS-PAGE. The protein-chelate compound associations were further analyzed to identify the different proteins by excising the corresponding protein bands from the gel, which was then treated with trypsin and purified. […]

[8] = target: T2, Amphiphysin I (Homo sapiens, UniProt P49418); test: as above; type: binding
T2 construct: Caco-2 and LNCaP cell lines were lysed by sonication or by lysis in hypotonic buffer; endogenous in cells; host or cells: Caco-2 and LNCaP
Protocol: as §5

[9] = system: Caco-2 cells; test: Permeability: detection of chelate compounds in the cytoplasm; type: cell-based, human; design: key to Permeability Caco-2: Absence = 0; presence = +; details: for Permeability Caco-2: 50 μM, 90 minutes at 37 °C, detection in the cytoplasm; for detection within the cytoplasm: carcinoma cell line Caco-2
Protocol: as §1, §2

[10] = target: T3, Cytokeratin 8 (Homo sapiens, UniProt P05787); test: Elution and identification of target-chelate compound associations; type: binding
T3 construct: Caco-2 and LNCaP cell lines were lysed by sonication or by lysis in hypotonic buffer; endogenous in cells; host or cells: Caco-2 and LNCaP
T3 sequence (P05787 1-483): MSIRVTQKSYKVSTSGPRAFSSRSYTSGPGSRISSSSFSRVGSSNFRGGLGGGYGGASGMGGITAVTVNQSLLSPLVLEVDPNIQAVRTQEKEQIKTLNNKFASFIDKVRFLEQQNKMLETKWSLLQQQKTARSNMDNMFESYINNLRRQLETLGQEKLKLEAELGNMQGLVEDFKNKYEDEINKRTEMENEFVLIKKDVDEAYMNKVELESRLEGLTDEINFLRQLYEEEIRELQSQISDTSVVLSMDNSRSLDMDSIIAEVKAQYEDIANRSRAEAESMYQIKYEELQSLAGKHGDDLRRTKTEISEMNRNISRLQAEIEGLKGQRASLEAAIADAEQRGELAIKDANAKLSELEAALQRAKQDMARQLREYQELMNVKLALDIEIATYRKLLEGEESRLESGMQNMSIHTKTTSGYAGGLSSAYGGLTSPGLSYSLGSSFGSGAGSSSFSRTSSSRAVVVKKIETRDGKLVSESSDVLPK
T3 sequence (P05783 2-430 partner limits assumed): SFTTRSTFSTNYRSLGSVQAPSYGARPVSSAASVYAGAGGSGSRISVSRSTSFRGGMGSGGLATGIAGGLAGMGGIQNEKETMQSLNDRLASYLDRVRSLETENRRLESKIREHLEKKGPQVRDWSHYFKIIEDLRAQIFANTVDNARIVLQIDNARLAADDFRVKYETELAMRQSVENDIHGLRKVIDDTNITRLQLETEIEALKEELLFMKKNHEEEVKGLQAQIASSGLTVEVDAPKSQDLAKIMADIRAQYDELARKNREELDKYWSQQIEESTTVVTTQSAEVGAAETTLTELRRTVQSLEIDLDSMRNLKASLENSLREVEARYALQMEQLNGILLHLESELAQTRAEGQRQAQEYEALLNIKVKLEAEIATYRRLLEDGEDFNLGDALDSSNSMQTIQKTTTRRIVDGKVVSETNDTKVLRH
Protocol: as §5

[11] = target: T4, Keratin 18 (Homo sapiens, UniProt P05783); test: as above; type: binding
T4 construct: Caco-2 and LNCaP cell lines were lysed by sonication or by lysis in hypotonic buffer; endogenous in cells; host or cells: Caco-2 and LNCaP
T4 sequence (P05783 2-430 limits assumed): T3 sequence (P05783 2-430 partner limits assumed)
T4 sequence (P05787 1-483 partner): T3 sequence (P05787 1-483)
Protocol: as §5

T1 sequence (P11021 19-654): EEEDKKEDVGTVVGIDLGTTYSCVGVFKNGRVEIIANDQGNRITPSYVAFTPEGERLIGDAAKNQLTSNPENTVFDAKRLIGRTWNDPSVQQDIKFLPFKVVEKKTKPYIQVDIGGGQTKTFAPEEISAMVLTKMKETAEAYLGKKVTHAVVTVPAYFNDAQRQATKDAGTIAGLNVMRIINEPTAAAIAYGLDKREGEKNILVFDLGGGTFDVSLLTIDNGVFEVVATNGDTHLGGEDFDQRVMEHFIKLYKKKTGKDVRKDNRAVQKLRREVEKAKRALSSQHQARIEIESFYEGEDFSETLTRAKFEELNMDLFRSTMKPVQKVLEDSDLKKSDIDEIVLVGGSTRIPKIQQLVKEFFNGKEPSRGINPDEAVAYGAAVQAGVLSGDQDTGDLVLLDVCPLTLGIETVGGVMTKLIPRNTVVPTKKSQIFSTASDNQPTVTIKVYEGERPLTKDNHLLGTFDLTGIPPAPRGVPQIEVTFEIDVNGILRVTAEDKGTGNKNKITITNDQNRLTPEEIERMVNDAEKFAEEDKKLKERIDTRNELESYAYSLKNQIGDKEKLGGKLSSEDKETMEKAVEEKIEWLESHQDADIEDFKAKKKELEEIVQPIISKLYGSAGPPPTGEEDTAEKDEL
T2 sequence (P49418 1-653 isoform P49418-2): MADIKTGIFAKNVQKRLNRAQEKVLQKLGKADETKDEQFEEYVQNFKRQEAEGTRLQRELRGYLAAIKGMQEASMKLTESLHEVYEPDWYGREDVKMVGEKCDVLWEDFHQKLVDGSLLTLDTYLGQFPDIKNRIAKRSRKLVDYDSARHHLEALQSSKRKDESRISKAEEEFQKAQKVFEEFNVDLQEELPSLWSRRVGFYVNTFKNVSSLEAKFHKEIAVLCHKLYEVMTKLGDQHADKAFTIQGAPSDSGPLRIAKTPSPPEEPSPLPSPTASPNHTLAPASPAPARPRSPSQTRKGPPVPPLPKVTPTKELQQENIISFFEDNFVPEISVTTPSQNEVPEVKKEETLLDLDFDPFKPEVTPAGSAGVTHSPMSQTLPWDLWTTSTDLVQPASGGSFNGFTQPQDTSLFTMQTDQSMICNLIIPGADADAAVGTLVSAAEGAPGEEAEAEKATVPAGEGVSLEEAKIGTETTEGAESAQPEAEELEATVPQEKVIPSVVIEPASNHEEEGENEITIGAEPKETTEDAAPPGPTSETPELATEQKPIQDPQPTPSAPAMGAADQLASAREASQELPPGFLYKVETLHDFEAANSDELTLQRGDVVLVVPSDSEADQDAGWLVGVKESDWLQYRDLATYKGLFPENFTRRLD

Row | Compound | Permeability LNCaP [1] | detection within the cytoplasm [1] | adsorption in carcinoma cell line Caco-2 [2] | Adsorption Caco-2 [2] | adsorption in normal cells (HEK293) [3] | Adsorption HEK293 [3] | adsorption in carcinoma cell line LNCaP [4] | Adsorption LNCaP [4] | Permeability HEK293 [5] | solubility [6] [mM] | binding to BiP (Seq. ID No. 5) [7] | binding to amphiphysin I (Seq. ID No. 7) [8] | Permeability Caco-2 [9] | detection within the cytoplasm [9] | binding to cytokeratin 8 (Seq. ID No. 10) [10] | binding to keratin 18 (Seq. ID No. 9) [11]
1 | CCOP(=O)(O)Cc1ccc2cc(C)ccc2n1 [Compound 2] | + | detected within the cytoplasm | adsorbed | ++ (++ = 21-40%) | not adsorbed | 0 (0 = 0-10%) | adsorbed | ++ (++ = 21-40%) | 0^b | > 10 | found to bind; also recorded: bind specifically | found to bind; also recorded: bind specifically | + | detected within the cytoplasm |  | 
2 | CCCCOP(=O)(O)Cc1ccc2cc(C)ccc2n1 [Compound 3] | + | detected within the cytoplasm | adsorbed | ++ (++ = 21-40%) | not adsorbed | 0 (0 = 0-10%) | adsorbed | ++++ (++++ = >60%) | 0 | > 10 | found to bind; also recorded: bind specifically | found to bind; also recorded: bind specifically | + | detected within the cytoplasm |  | 
3 | CCCCOP(=O)(O)Cc1cc(CP(=O)(O)OCCCC)cc(CP(=O)(O)OCCCC)c1 [Compound 9, [3,5-Bis-(Butoxy-hydroxy-phosphorylmethyl)-benzyl]-phosphonic acid monobutyl ester] | + | detected within the cytoplasm | adsorbed | ++ (++ = 21-40%) | not adsorbed | 0 (0 = 0-10%) | adsorbed | ++ (++ = 21-40%) | 0 | > 10 |  |  | + | detected within the cytoplasm | found to bind; also recorded: bind specifically | found to bind; also recorded: bind specifically
4 | CCOP(=O)(O)Cc1cc(CP(=O)(O)OCC)cc(CP(=O)(O)OCC)c1 [Compound 8, [3,5-Bis-(Ethoxy-hydroxy-phosphorylmethyl)-benzyl]-phosphonic acid monoethyl ester] | + | detected within the cytoplasm | adsorbed | +++ (+++ = 41-60%) | not adsorbed | 0 (0 = 0-10%) | adsorbed | +++ (+++ = 41-60%) | 0 | > 10 |  |  | + | detected within the cytoplasm | found to bind; also recorded: bind specifically | found to bind; also recorded: bind specifically
5 | CCCCOP(=O)(O)Cc1c(C)c(CP(=O)(O)OCCCC)c(C)c(CP(=O)(O)OCCCC)c1C [Compound 12, [3,5-Bis-(Butoxy-hydroxy-phosphorylmethyl)-2,4,6-trimethyl-benzyl]-phosphonic acid monobutyl ester] | + | detected within the cytoplasm | adsorbed | ++++ (++++ = >60%) | not adsorbed | 0 (0 = 0-10%) | adsorbed | +++ (+++ = 41-60%) | 0 | > 10 |  |  | + | detected within the cytoplasm | found to bind; also recorded: bind specifically | found to bind; also recorded: bind specifically
